Experimental data as given in PubChem BioAssay AID1576 (EPA DSSTox, 2009).
Active and inactive are the calls of the source.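 Rule for the calls: active = chemicals shown by follow-up kinetic tests to compete for rat estrogen receptor sites, with a measured inhibition constant; inconclusive = some binding seen but constant unmeasurable owing to poor solubility; inactive = no binding up to top dose, or binding unconfirmed.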

These compounds were tested against Estrogen receptor (Rattus norvegicus) (UniProt P06211) (assay: DSSTox (KIERBL) EPA Estrogen Receptor Ki Binding Study (Laws et al.) Database). Conditions: Rat uterine cytosol ER, 3H-estradiol competitive binding.
Sequence of Estrogen receptor (Rattus norvegicus) (P06211 whole entry, looked up): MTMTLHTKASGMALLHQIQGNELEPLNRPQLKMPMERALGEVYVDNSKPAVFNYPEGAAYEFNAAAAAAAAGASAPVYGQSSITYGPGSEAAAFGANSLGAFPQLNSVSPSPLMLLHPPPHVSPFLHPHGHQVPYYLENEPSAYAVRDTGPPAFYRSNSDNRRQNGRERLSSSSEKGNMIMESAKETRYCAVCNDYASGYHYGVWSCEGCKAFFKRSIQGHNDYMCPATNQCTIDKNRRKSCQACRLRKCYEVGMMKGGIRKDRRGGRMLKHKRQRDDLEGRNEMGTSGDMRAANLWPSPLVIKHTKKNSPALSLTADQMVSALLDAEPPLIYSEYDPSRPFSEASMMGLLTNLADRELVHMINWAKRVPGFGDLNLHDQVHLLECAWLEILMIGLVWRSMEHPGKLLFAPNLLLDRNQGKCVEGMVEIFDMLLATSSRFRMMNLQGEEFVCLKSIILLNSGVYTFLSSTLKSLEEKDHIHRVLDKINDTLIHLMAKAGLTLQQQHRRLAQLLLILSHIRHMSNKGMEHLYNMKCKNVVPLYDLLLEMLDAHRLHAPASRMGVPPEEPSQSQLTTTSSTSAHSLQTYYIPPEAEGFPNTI
Protocol: This study was conducted by EPA researchers to evaluate the validity of the rat uterine cytosolic (RUC) estrogen receptor (ER) competitive binding assay for use in the Endocrine Disruption Screening Program (EDSP). The assay measures the ability of radiolabeled 17-beta-estradiol (3H-E2) to bind with RUC ER in the presence of increasing concentrations of a test chemical. The goal is to employ this in vitro assay as a 1st tier screening tool for assessing the potential of structurally diverse environmental chemicals to bind to the ER, as well as to support research efforts to develop computational models to predict ER binding. A distinguishing feature of the present study was the use of secondary experimental analysis of binding curves and determination of Ki values to confirm that measured IC50 values corresponded to true positive results. The study concluded that a number of experimental conditions can confound interpretation of IC50 values obtained from the RUC ER-binding assay data and lead to false positive results. In particular, some chemical treatments likely alter the stability of the assay by changing the buffer pH, denaturing ER, or disrupting the ER binding kinetics. […] The chemicals used in this study were selected as part of a validation test for two Quantitative Structure-Activity Relationship (QSAR) models designed to predict ER binding [Fed. Reg. 67(250), 79618, Dec. 30, 2002]. Several hundred chemicals were initially screened, including approximately 100 chemicals selected from among the High Production Volume (HPV) chemicals included in EPA's Toxic Substances Control Act (TSCA) inventory that were predicted to be positive for ER binding, with the rest selected at random from the TSCA inventory. All chemicals were initially tested in ER competitive binding assays by Battelle Pacific Northwest Laboratories, Richland, Washington [EPA Contract Number 68-W-99-033, Task 6]. Approximately 50 chemicals produced binding curves that: (1) strongly implied competitive inhibition of ER binding, or (2) produced partial curves or irregular (non-sigmoid) binding curves. These chemicals were further evaluated in an ER competitive binding assay with secondary analysis to confirm true competitive inhibition and to determine an experimental Ki [U.S. EPA Contract 3D-5967-NTEX]. The results of RUC ER screening for these 50 structurally diverse chemicals, for which secondary confirmatory analyses were performed, were published in the Main Citation (Laws et al., 2006, Tox. Sci. 94:46-56). The remaining 228 chemicals were designated as non-binders based on initial screening studies.
The DSSTox KIERBL data files include all published IC50 and Ki experimental results for the 50 chemicals included in the Main Citation (Laws et al., 2006) (denoted Group 1), as well as previously unpublished results for an additional 228 structually diverse TSCA chemicals for which no ER binding was observed (denoted Group 2. IC50 values were determined for 32 compounds in Group 1 as the concentration of a test chemical that inhibits the maximal specific binding of 0.33 nM radiolabeled (3H) 17-beta-estradiol (E2) to rat uterine cytosolic (RUC) estrogen receptor (ER) by 50%. Confirmation of binding status was accomplished by secondary analysis using Lineweaver-Burk plots and slope replots to determine true competitive inhibition and an experimental Ki value. Ki is the inhibition constant for the test chemical, i.e., the concentration of the test chemical that will bind to half the binding sites at equilibrium (displacing half of the probe-bound receptors), in the absence of radioligand or other competitors. Ki reported as Mean +/- Standard Error from n=2 experiments (see StandardError_Ki_n2) and is determined from Lineweaver-Burk plots over the tested dose range (TestedRange_microM). For more information see BindingCurve_Group and BindingCurve_Details. […]
With `CC(C)COC(=O)CC(C(=O)OCC(C)C)S(=O)(=O)O` (stereo unspecified) the outcome was “inactive; none”. In the case of `O=C(Cl)c1ccccc1C(=O)Cl`, the outcome is reported as “inactive; none”. `CC(C)N` was tested, and the outcome was “inactive; none”. `CCC[CH2][Sn]([CH2]CCC)([CH2]CCC)[O][Sn]([CH2]CCC)([CH2]CCC)[CH2]CCC` was tested, and the outcome was “inactive; none”. For `C1CCC(NC2CCCCC2)CC1`, the outcome was “inactive; none”. In the case of `Cc1ccc(C)c(O)c1C`, the outcome is reported as “inactive; none”. For `OCCOCCOCCO`, the outcome was “inactive; none”. For `CC(C)CCC(C)Nc1ccc(NC(C)CCC(C)C)cc1` (stereo unspecified), the outcome was “inactive; none”. With `CC(C)c1ccc2cc(C(C)C)ccc2c1` the outcome was “inactive; none”. With `Nc1ccc(/C=C/c2ccc(N)cc2S(=O)(=O)O)c(S(=O)(=O)O)c1` the outcome was “inactive; none”. With `CCCCCCC(=O)O` the outcome was “inactive; none”. In the case of `CO[Si](CCCNCCC[Si](OC)(OC)OC)(OC)OC`, the outcome is reported as “inactive; none”. In the case of `O=C1OC2(c3ccc(O)cc3Oc3cc(O)ccc32)c2c(Cl)c(Cl)c(Cl)c(Cl)c21`, the outcome is reported as “inactive; none”. For `CCN(CC)c1ccc(N)c(C)c1`, the outcome was “inactive; none”. With `COc1cc(S(=O)(=O)O)c(C)cc1N=Nc1c(O)ccc2cc(S(=O)(=O)O)ccc12` the outcome was “inactive; none”.

Same assay, conditions: Rat uterine cytosol ER, 3H-estradiol competitive binding; TestedRange_microM: 44-178
`CCCCCCCc1ccc(O)cc1` was tested, and the Potency was 177 µM.
